Assay results reported in patent US10941157B2, “Pesticidal compositions and uses thereof” (Gilead Apollo, LLC, priority 2015, dated 2021).
In brackets after ≈: the same amount, converted by molar mass. Read-outs that look alike come from different tables or passages of the source.

Experiments:
Format in all cases: cell-based
[1] = tested on: Phytophthora capsici (Pc); experiment: In vitro pathogen growth inhibition assay, Pc; conditions: 48 h
Outline: (§1)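 Spores in 17% V8 liquid medium, or 1.5 mm Rs mycelial plugs in ¼ PDB, incubated with compound; final concentration checked by OD600 for precipitation. OD readings at 24 and 48 h, blank-subtracted, plus visual ratings; value is concentration giving ≥90% growth inhibition.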

[2] = tested on: Septoria tritici (St); experiment: In vitro pathogen growth inhibition assay, St; conditions: Zymoseptoria tritici, 48 h
Outline: as §1

[3] = tested on: Diplodia maydis (Dm); experiment: In vitro pathogen growth inhibition assay, Dm; conditions: Stenocarpella maydis, 48 h
Outline: as §1

[4] = tested on: Fusarium moniliforme (Fm); experiment: In vitro pathogen growth inhibition assay, Fm; conditions: Fusarium verticillioides
Outline: as §1

[5] = tested on: Botrtyis cinerea (Bc); experiment: In vitro pathogen growth inhibition assay, Bc; conditions: 48 h
Outline: as §1

[6] = tested on: Collectotrichum graminicola (Cg); experiment: In vitro pathogen growth inhibition assay, Cg; conditions: 48 h
Outline: as §1

[7] = tested on: Fusarium virguliforme (Fv); experiment: In vitro pathogen growth inhibition assay, Fv
Outline: as §1

[8] = tested on: Rhizoctonia solani (Rs); experiment: In vitro pathogen growth inhibition assay, Rs (mycelial plugs); conditions: Rhizoctonia solani, 48 h, mycelial plugs
Outline: as §1

[9] = ≥90% inhibition, 48 hours vs 2% DMSO control, read-out: Compound Concentration (ppm) sufficient for ≥90% inhibition of growth, Pc
[10] = ≥90% inhibition, 48 hours vs 2% DMSO control, read-out: Compound Concentration (ppm) sufficient for ≥90% inhibition of growth, St
[11] = ≥90% inhibition, 48 hours vs 2% DMSO control, read-out: Compound Concentration (ppm) sufficient for ≥90% inhibition of growth, Dm
[12] = ≥90% inhibition, 48 hours vs 2% DMSO control, read-out: Compound Concentration (ppm) sufficient for ≥90% inhibition of growth, Fm
[13] = ≥90% inhibition, 48 hours vs 2% DMSO control, read-out: Compound Concentration (ppm) sufficient for ≥90% inhibition of growth, Bc
[14] = ≥90% inhibition, 48 hours vs 2% DMSO control, read-out: Compound Concentration (ppm) sufficient for ≥90% inhibition of growth, Cg
[15] = ≥90% inhibition, 48 hours vs 2% DMSO control, read-out: Compound Concentration (ppm) sufficient for ≥90% inhibition of growth, Fv
[16] = ≥90% inhibition, 48 hours vs 2% DMSO control, read-out: Compound Concentration (ppm) sufficient for ≥90% inhibition of growth, Rs
[17] = ≥90% growth inhibition, 48 hours, vs 2% DMSO control, read-out: Compound Concentration (ppm) sufficient for ≥90% inhibition of Pc
[18] = ≥90% growth inhibition, 48 hours, vs 2% DMSO control, read-out: Compound Concentration (ppm) sufficient for ≥90% inhibition of St
[19] = ≥90% growth inhibition, 48 hours, vs 2% DMSO control, read-out: Compound Concentration (ppm) sufficient for ≥90% inhibition of Dm
[20] = ≥90% growth inhibition, 48 hours, vs 2% DMSO control, read-out: Compound Concentration (ppm) sufficient for ≥90% inhibition of Fm
[21] = ≥90% growth inhibition, 48 hours, vs 2% DMSO control, read-out: Compound Concentration (ppm) sufficient for ≥90% inhibition of Bc
[22] = ≥90% growth inhibition, 48 hours, vs 2% DMSO control, read-out: Compound Concentration (ppm) sufficient for ≥90% inhibition of Cg
[23] = ≥90% growth inhibition, 48 hours, vs 2% DMSO control, read-out: Compound Concentration (ppm) sufficient for ≥90% inhibition of Fv
[24] = ≥90% growth inhibition, 48 hours, vs 2% DMSO control, read-out: Compound Concentration (ppm) sufficient for ≥90% inhibition of Rs

IC90 [1, 9] [µg/mL]	IC90 [2, 10] [µg/mL]	IC90 [3, 11] [µg/mL]	IC90 [4, 12] [µg/mL]	IC90 [5, 13] [µg/mL]	IC90 [6, 14] [µg/mL]	IC90 [7, 15] [µg/mL]	IC90 [8, 16] [µg/mL]	IC90 [1, 17] [µg/mL]	IC90 [2, 18] [µg/mL]	IC90 [3, 19] [µg/mL]	IC90 [4, 20] [µg/mL]	IC90 [5, 21] [µg/mL]	IC90 [6, 22] [µg/mL]	IC90 [7, 23] [µg/mL]	IC90 [8, 24] [µg/mL]	SMILES
> 50	> 50	2 (≈ 3.49 µM)	0.4 (≈ 0.698 µM)	0.4 (≈ 0.698 µM)	10 (≈ 17.5 µM)	0.4 (≈ 0.698 µM)	≥ 0.4									COc1ccc(F)cc1[C@H](Cn1c(=O)n(C(C)(C)C(=O)N(C)C)c(=O)c2c(C)c(-n3nccn3)sc21)OC(C)C [Compound I-131]
								> 50	≥ 10	≥ 10	0.4 (≈ 0.664 µM)	2 (≈ 3.32 µM)	10 (≈ 16.6 µM)	0.4 (≈ 0.664 µM)	0.08 (≈ 0.133 µM)	CCOC(=O)c1sc2c(c1C)c(=O)n([C@@H](C)C(=O)N(C)C(C)C)c(=O)n2C[C@H](OCCC#N)c1cc(F)ccc1OC [Compound I-230]
50 (≈ 83.4 µM)	> 50	50 (≈ 83.4 µM)	2 (≈ 3.34 µM)	10 (≈ 16.7 µM)	> 50	> 50	10 (≈ 16.7 µM)									COc1ccc(F)cc1[C@H](Cn1c(=O)n(C(C)(C)C(=O)O)c(=O)c2c(C)c(-n3nccn3)sc21)OC1CCC(=O)CC1 [Compound I-158]
								> 50	> 50	> 50	2 (≈ 3.49 µM)	10 (≈ 17.5 µM)	> 50	2 (≈ 3.49 µM)	50 (≈ 87.3 µM)	CCOC(=O)c1sc2c(c1C)c(=O)n(C(C)(C)C(=O)NC(C)C)c(=O)n2CCc1cc(F)ccc1OCCC#N [Compound I-339]
								10 (≈ 17 µM)	≥ 50	10 (≈ 17 µM)	0.4 (≈ 0.681 µM)	2 (≈ 3.4 µM)	2 (≈ 3.4 µM)	2 (≈ 3.4 µM)	0.4 (≈ 0.681 µM)	COc1ccc(F)cc1[C@H](Cn1c(=O)n([C@@H](C)C(=O)N(C)C(C)C)c(=O)c2c(C)c(-n3cccn3)sc21)OCCO [Compound I-244]

Further lines, the molecule ahead of its results:

SMILES	IC90 [1, 9] [µg/mL]	IC90 [2, 10] [µg/mL]	IC90 [3, 11] [µg/mL]	IC90 [4, 12] [µg/mL]	IC90 [5, 13] [µg/mL]	IC90 [6, 14] [µg/mL]	IC90 [7, 15] [µg/mL]	IC90 [8, 16] [µg/mL]	IC90 [1, 17] [µg/mL]	IC90 [2, 18] [µg/mL]	IC90 [3, 19] [µg/mL]	IC90 [4, 20] [µg/mL]	IC90 [5, 21] [µg/mL]	IC90 [6, 22] [µg/mL]	IC90 [7, 23] [µg/mL]	IC90 [8, 24] [µg/mL]
COc1ccc(F)cc1[C@H](Cn1c(=O)n(CC(=O)N2CCCC2)c(=O)c2c(C)c(-n3cccn3)sc21)OC(C)C [Compound I-128]	> 50	> 50	> 10	0.4 (≈ 0.702 µM)	2 (≈ 3.51 µM)	10 (≈ 17.6 µM)	2 (≈ 3.51 µM)	≥ 2								
COc1ccc(F)cc1[C@H](Cn1c(=O)n(C(C)(C)C(=O)NC2CCCCC2)c(=O)c2c(C)c(-n3nccn3)sc21)OC1CCOCC1 [Compound I-039]	> 50	≥ 2	0.4 (≈ 0.598 µM)	0.08 (≈ 0.12 µM)	0.4 (≈ 0.598 µM)	2 (≈ 2.99 µM)	0.4 (≈ 0.598 µM)	0.4 (≈ 0.598 µM)								
COc1ccc(F)cc1[C@H](Cn1c(=O)n(C(C)(C)C(N)=O)c(=O)c2c(C)c(-n3nccn3)sc21)OC1CCC(=O)CC1 [Compound I-124]	50 (≈ 83.5 µM)	> 50	≥ 2	0.4 (≈ 0.668 µM)	≥ 0.4	10 (≈ 16.7 µM)	10 (≈ 16.7 µM)	2 (≈ 3.34 µM)								
COc1ccc(F)cc1[C@H](Cn1c(=O)n(C(C)(C)C(=O)NC(C)C)c(=O)c2c(C)c(-n3nccn3)sc21)OC[C@@H](C)O [Compound I-065]	≥ 2	≥ 2	0.4 (≈ 0.664 µM)	0.08 (≈ 0.133 µM)	2 (≈ 3.32 µM)	0.4 (≈ 0.664 µM)	0.4 (≈ 0.664 µM)	≥ 0.08								
COc1ccc(F)cc1[C@H](Cn1c(=O)n(C(C)(C)C(=O)N2CCCC2)c(=O)c2c(C)c(-n3cccn3)sc21)O[C@H]1CC[C@@H](O)CC1 [Compound I-123]	> 50	> 50	10 (≈ 15.3 µM)	0.4 (≈ 0.612 µM)	2 (≈ 3.06 µM)	≥ 10	2 (≈ 3.06 µM)	10 (≈ 15.3 µM)								
